Assay results as given in patent publication US20260216199A1, “RAF INHIBITOR AND KRAS G12C INHIBITOR COMBINATION THERAPY” (Erasca, Inc., priority 2023, published 2026).

Experiments:
NCI-H358 (KRAS G12C) = experiment: In vivo KRAS-mutant tumor model NCI-H358; conditions: well-tolerated doses
[1] = tested on: NSCLC-derived Calu-6 (KRAS Q61K); experiment: In vivo KRAS-mutant tumor model Calu-6; conditions: Calu-6 (KRAS Q61K) model, well-tolerated doses
CRAF = CRAF (Homo sapiens, UniProt P04049); experiment: CRAF inhibition; assay type: biochemical
BRAF = BRAF (Homo sapiens, UniProt P15056); experiment: BRAF inhibition; assay type: biochemical
[2] = tested on: cell lines that contain a variety of mutations that activate MAPK signaling; experiment: Cell-based anti-proliferative assays; conditions: cell lines with mutations that activate MAPK signaling

Sequence of CRAF (P04049 whole entry): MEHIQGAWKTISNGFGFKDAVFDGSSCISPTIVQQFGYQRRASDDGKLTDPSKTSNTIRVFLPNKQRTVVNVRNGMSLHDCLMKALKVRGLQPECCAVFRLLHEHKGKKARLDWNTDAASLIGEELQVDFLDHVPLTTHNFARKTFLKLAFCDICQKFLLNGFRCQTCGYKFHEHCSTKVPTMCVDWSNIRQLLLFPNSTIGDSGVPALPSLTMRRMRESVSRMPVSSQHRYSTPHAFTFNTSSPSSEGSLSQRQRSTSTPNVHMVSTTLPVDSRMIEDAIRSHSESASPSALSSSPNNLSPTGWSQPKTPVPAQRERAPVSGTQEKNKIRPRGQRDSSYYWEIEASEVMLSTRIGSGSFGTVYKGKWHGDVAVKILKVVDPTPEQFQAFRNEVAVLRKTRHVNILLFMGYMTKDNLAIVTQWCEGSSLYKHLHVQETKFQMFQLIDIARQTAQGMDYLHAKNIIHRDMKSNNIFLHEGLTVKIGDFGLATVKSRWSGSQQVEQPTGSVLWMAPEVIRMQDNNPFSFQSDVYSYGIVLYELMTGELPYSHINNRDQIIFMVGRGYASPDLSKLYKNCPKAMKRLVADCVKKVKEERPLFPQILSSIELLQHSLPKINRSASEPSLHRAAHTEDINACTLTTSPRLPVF
Sequence of BRAF (P15056 whole entry): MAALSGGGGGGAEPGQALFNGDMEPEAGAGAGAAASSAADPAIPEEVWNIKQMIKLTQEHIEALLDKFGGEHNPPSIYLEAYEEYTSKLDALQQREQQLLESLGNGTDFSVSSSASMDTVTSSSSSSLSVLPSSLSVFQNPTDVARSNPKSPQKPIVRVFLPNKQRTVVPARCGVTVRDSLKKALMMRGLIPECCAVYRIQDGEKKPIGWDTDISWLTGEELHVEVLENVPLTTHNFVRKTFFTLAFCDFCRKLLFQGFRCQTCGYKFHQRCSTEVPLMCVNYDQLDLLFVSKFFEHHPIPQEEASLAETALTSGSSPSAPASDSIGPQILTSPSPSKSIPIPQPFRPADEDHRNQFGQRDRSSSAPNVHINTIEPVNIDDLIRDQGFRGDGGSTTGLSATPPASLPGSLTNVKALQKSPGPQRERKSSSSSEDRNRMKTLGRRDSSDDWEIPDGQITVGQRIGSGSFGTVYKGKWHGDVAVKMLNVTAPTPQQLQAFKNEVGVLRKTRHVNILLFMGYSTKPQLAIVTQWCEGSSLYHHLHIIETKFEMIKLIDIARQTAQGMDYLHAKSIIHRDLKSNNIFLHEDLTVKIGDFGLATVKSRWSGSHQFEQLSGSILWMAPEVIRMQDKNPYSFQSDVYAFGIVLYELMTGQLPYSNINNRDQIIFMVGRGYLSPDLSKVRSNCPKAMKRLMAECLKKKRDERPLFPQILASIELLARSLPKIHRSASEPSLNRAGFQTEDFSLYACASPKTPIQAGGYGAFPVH

Cc1ccc(NC(=O)c2ccnc(C(F)(F)F)c2)cc1-c1cc(OCCO)nc(N2CCOCC2)c1 [Compound of formula (I)]
tumor response in vivo (NCI-H358 (KRAS G12C)): tumor regression
tumor response in vivo [1]: tumor regression
inhibition of CRAF (CRAF): potent inhibitors
inhibition of BRAF (BRAF): potent inhibitors
anti-proliferative activity in cell lines [2]: anti-proliferative activity
